Patent US8853174B2, “Agent for preventing or ameliorating skin aging” (Kao Corporation, priority 2008, dated 2014)

Tested on: Human skin fibroblasts
Test: Measurement of contraction force generated by cells (fibroblast-embedded collagen gel culture system)
Format: cell-based
Settings: for enhancement in the contraction force generated by fibroblasts (in words): 3 μM; for Mean value of contraction force generated by cells: Test Example 1, human skin fibroblasts in collagen gel, final concentration 3 μM

C/C=C(/C)C(=O)O[C@H]1[C@H](OC(C)=O)[C@]2(CO)[C@H](O)C[C@]3(C)C(=CC[C@@H]4[C@@]5(C)CC[C@H](O[C@@H]6O[C@H](C(=O)O)[C@@H](O[C@@H]7O[C@H](CO)[C@@H](O)[C@H](O)[C@H]7O)[C@H](O)[C@H]6O[C@@H]6O[C@H](CO)[C@@H](O)[C@H](O)[C@H]6O)[C@](C)(CO)[C@@H]5CC[C@]43C)[C@@H]2CC1(C)C [Escin Ib]
enhancement in the contraction force generated by fibroblasts (in words): no enhancement
Mean value of contraction force generated by cells: 0.0 dyne

C/C=C(\C)C(=O)O[C@H]1[C@H](OC(C)=O)[C@]2(CO)[C@H](O)C[C@]3(C)C(=CC[C@@H]4[C@@]5(C)CC[C@H](O[C@@H]6O[C@H](C(=O)O)[C@@H](O[C@@H]7O[C@H](CO)[C@@H](O)[C@H](O)[C@H]7O)[C@H](O)[C@H]6O[C@@H]6O[C@H](CO)[C@@H](O)[C@H](O)[C@H]6O)[C@](C)(CO)[C@@H]5CC[C@]43C)[C@@H]2CC1(C)C [Escin Ia]
enhancement in the contraction force generated by fibroblasts (in words): no enhancement
Mean value of contraction force generated by cells: 0.0 dyne
